# Measured values from paper PMC4051656, “Cyanuric Acid Hydrolase from Azorhizobium caulinodans ORS 571: Crystal Structure and Insights into a New Class of Ser-Lys Dyad Proteins” (PLoS ONE, 2014).
# Target: T1, CAH (cyanuric acid hydrolase from Azorhizobium caulinodans ORS 571) (Azorhizobium caulinodans, UniProt A8IKD2)
# T1 construct: gene AZC_3892; heterologously expressed and purified; selenomethionine-substituted for the crystal; domains A 1-99, B 108-242, C 249-355; homotetramer
# T1 sequence (A8IKD2 1-356): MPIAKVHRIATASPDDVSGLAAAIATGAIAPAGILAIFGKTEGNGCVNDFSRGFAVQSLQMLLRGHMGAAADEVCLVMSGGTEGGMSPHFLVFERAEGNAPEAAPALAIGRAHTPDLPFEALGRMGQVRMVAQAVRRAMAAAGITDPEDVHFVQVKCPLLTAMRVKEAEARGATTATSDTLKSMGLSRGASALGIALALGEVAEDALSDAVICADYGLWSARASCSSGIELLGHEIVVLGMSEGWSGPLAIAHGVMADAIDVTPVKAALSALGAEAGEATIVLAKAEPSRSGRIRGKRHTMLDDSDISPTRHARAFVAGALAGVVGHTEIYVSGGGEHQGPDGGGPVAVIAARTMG
# Test: X-ray crystal structure of complex (SAD, […] Å)
# Assay type: binding
# Details: selenomethionine protein; Tris-HCl pH 7.0-7.5, magnesium sulfate, 20 °C; active site in both subunits; second site on surface of one subunit at lower occupancy
structure (smiles),measurement,value
O=C1CC(=O)NC(=O)N1 [barbituric acid],"X-ray crystal structure of complex (SAD, 2.7 Å)","a molecule of the highly analogous substrate analog, barbituric acid was found"
